Data: paper PMC4729137, “Functional analysis of androgen receptor mutations that confer anti-androgen resistance identified in circulating cell-free DNA from prostate cancer patients” (Genome Biology, 2016)
Changes are numbered by the printed parent chain. “Also recorded” adds a separate entry of the source.

Key:
[1] = target: T1, H875Y-AR (Homo sapiens, UniProt P10275, H875Y); experiment: cell-based
T1 sequence (P10275 1-920 H875Y): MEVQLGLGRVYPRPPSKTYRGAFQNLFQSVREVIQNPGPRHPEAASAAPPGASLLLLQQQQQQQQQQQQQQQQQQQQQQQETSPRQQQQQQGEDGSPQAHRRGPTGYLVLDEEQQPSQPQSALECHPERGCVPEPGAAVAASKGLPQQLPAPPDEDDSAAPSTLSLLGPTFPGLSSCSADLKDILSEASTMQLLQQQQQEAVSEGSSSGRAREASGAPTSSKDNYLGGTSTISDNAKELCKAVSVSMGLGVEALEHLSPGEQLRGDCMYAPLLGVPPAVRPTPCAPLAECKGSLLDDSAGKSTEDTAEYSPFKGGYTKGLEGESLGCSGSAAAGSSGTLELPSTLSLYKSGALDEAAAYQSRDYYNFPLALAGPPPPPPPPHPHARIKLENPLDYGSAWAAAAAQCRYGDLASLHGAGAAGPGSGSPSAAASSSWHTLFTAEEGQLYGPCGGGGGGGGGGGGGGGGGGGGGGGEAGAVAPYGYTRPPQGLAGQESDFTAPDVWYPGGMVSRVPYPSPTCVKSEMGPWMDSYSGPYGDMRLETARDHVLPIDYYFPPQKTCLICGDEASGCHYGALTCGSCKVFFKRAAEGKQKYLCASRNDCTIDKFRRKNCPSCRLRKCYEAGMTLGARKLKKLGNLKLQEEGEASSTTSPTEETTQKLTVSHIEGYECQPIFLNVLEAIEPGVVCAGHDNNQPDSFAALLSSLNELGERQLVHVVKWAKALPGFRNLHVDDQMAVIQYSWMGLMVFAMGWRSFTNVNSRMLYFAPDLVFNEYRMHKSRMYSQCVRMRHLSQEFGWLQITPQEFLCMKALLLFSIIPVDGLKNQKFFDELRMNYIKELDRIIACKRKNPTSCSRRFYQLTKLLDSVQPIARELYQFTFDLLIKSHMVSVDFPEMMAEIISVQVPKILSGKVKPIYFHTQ

[2] = target: T2, H875Y/T878A-AR (Homo sapiens, UniProt P10275, H875Y/T878A); experiment: cell-based
T2 sequence (P10275 1-920 H875Y/T878A): T1 sequence (P10275 1-920 H875Y) with T878A

[3] = target: T3, WT-AR (Homo sapiens, UniProt P10275); details: concentrations up to 500 nM
T3 sequence (P10275 1-920): T1 sequence (P10275 1-920 H875Y) with Y875H

## C[C@]12CCC(=O)C=C1CC[C@@H]1[C@@H]2[C@@H](O)C[C@@]2(C)[C@H]1CC[C@]2(O)C(=O)CO [hydrocortisone]
[1]
  EC50: > 500 nM
[2]
  EC50: 105 nM
[3]
  Transcriptional activation of wild-type AR (in words): not activated; also recorded: did not exhibit any significant transcriptional activation
